In publication PMC8765781, “A platform of assays for the discovery of anti-Zika small-molecules with activity in a 3D-bioprinted outer-blood-retina model” (PLoS ONE, 2022):
Where two headings read alike, the source gives them in different places. *1 amine or outer side, *2 acyl side, *3 side chain or, on linkers, in order; H or OH if unused. Where a SMILES comes first, the peptide text is derived from it. [ ]: non-standard residue; d: D form. X3 = CC(CC(O[*:1])C(=O)[*:2])C(=O)O; NMeV = CN[CH](C(=O)O)C(C)C; NMeA = CN[CH](C)C(=O)O; βAla = NCCC(=O)O

Experiments:
[1] = system: ZIKV-RLuc (Cambodian strain FSS13025); test: microbe, parasite or virus in culture; format: cell-based, Zika virus; conditions: for AC50: Zika virus, Vero
[2] = system: wild-type ZIKV (Ugandan MR766 strain) in Vero cells; test: ZIKV cytopathic effect (CPE) inhibition qHTS assay, CellTiter-Glo readout; format: cell-based, Zika virus
[3] = read-out: Log AC50 (M) (converted)

CC1CCCC(SCC(O)C(=O)O)CC(=O)c2c(O)cc(O)cc2CC(=O)O1 (stereo not drawn) [NCGC00380419-01]
CC-v2 (curve class classification v2 of the dose response curve) [1]: -3 | Efficacy (difference between neutral response and maximum compound response) [1]: -93.408 | Max Resp (difference between neutral response and compound response for highest compound concentration) [1]: -77.007 | AC50 [1]: 1.82e-05 M | AC50 [1, 3]: 1.82e-05 M | AC50 (Vero cells): 18.2 µM | Log AC50 (M) (Vero cells): -4.7408 M

COc1ccc(/C=C/C(=O)/C=C/c2ccc(OC)cc2)cc1 [NCGC00336197-02]
CC-v2 (curve class classification v2 of the dose response curve) [1]: 3 | Efficacy (difference between neutral response and maximum compound response) [1]: 41.267 | Max Resp (difference between neutral response and compound response for highest compound concentration) [1]: 6.905

CC[C@@H]1C(=O)N(C)c2cnc(Nc3ccc(C(=O)NC4CCN(C)CC4)cc3OC)nc2N1C1CCCC1 [NCGC00253438-01]
CC-v2 (curve class classification v2 of the dose response curve) [1]: -1.1 | Efficacy (difference between neutral response and maximum compound response) [1]: -120.006 | Max Resp (difference between neutral response and compound response for highest compound concentration) [1]: -99.011 | AC50 [1]: 2.33e-06 M | AC50 [1, 3]: 2.33e-06 M | AC50 (Vero cells): 2.33 µM | Log AC50 (M) (Vero cells): -5.6327 M

Nc1ccc(C(=O)c2cc3c(ccc4ccccc43)[nH]2)cc1 [NCGC00263233-01]
CC-v2 (curve class classification v2 of the dose response curve) [1]: -2.1 | Efficacy (difference between neutral response and maximum compound response) [1]: -115.821 | Max Resp (difference between neutral response and compound response for highest compound concentration) [1]: -99.398 | AC50 [1]: 2.08e-05 M | AC50 [1, 3]: 2.08e-05 M | AC50 (Vero cells): 20.8 µM | Log AC50 (M) (Vero cells): -4.6827 M

CC1=CC(=O)C(=C(C)C)CC2C(C)(O)CCC12O (stereo not drawn) [NCGC00385849-01]
CC-v2 (curve class classification v2 of the dose response curve) [1]: -1.2 | Efficacy (difference between neutral response and maximum compound response) [1]: -35.641 | Max Resp (difference between neutral response and compound response for highest compound concentration) [1]: -12.132

CCCCc1ccc(N[S+](=O)([O-])c2ccc(C)c(C(=O)N3CCN(c4cccc(C)c4C)CC3)c2)cc1 [NCGC00263234-01]
CC-v2 (curve class classification v2 of the dose response curve) [1]: -3 | Efficacy (difference between neutral response and maximum compound response) [1]: -38.307 | Max Resp (difference between neutral response and compound response for highest compound concentration) [1]: -30.256 | AC50 [1]: 7.59e-05 M | AC50 [1, 3]: 7.59e-05 M

CCN(CC)Cc1cc(Nc2ccnc3cc(Cl)ccc23)ccc1O [NCGC00017063-03]
CC-v2 (curve class classification v2 of the dose response curve) [1]: 4 | Efficacy (difference between neutral response and maximum compound response) [1]: 28.757 | Max Resp (difference between neutral response and compound response for highest compound concentration) [1]: 20.219

CN1CCC(=C2c3ccccc3CCc3sccc32)CC1 [NCGC00163169-02]
CC-v2 (curve class classification v2 of the dose response curve) [1]: 4 | Efficacy (difference between neutral response and maximum compound response) [1]: 14.14 | Max Resp (difference between neutral response and compound response for highest compound concentration) [1]: -9.44

CCC(C)C(O)C(=O)OC1CC2C(C)(C)C(OC(C)=O)CC(OC(C)=O)C2(C)C2CC(OC(C)=O)C3(C)C(=CCC3c3ccoc3)C12C (stereo not drawn) [NCGC00385571-01]
CC-v2 (curve class classification v2 of the dose response curve) [1]: -3 | Efficacy (difference between neutral response and maximum compound response) [1]: 0 | Max Resp (difference between neutral response and compound response for highest compound concentration) [1]: -47.611

CCC(C)C1NC(=O)C2CCCN2C(=O)C(CC(C)C(=O)O)OC(=O)CCNC(=O)C(C)N(C)C(=O)C(C(C)C)N(C)C1=O (stereo not drawn) [NCGC00380598-01] (cyclo([X3]PI[NMeV][NMeA][βAla]); configuration not given here)
CC-v2 (curve class classification v2 of the dose response curve) [1]: 4 | Efficacy (difference between neutral response and maximum compound response) [1]: -20.973 | Max Resp (difference between neutral response and compound response for highest compound concentration) [1]: -24.561

CN1CCN(CCCN2c3ccccc3Sc3ccc(S(=O)(=O)N(C)C)cc32)CC1.CS(=O)(=O)O.CS(=O)(=O)O [NCGC00017040-01]
CC-v2 (curve class classification v2 of the dose response curve) [1]: 4 | Efficacy (difference between neutral response and maximum compound response) [1]: -28.971 | Max Resp (difference between neutral response and compound response for highest compound concentration) [1]: -22.476

CC[C@@]1([C@@H]2O[C@@H]([C@H]3O[C@@](O)(CO)[C@H](C)C[C@@H]3C)C[C@@H]2C)CC[C@H]([C@]2(C)CC[C@]3(C[C@H](O)[C@@H](C)[C@@H]([C@@H](C)[C@@H](OC)[C@H](C)C(=O)O)O3)O2)O1 [NCGC00179454-04]
CC-v2 (curve class classification v2 of the dose response curve) [1]: 4 | Efficacy (difference between neutral response and maximum compound response) [1]: 29.905 | Max Resp (difference between neutral response and compound response for highest compound concentration) [1]: -20.473

CC(C)(N)C(=O)N[C@H](COCc1ccccc1)C(=O)N1CCC2(CC1)CN([S+](C)(=O)[O-])c1ccccc12 [NCGC00263115-01]
CC-v2 (curve class classification v2 of the dose response curve) [1]: 4 | Efficacy (difference between neutral response and maximum compound response) [1]: -25.4 | Max Resp (difference between neutral response and compound response for highest compound concentration) [1]: -0.591

Cc1cccc(C)c1OCC(=O)N[C@@H](Cc1ccccc1)[C@@H](O)C[C@H](Cc1ccccc1)NC(=O)[C@H](C(C)C)N1CCCNC1=O [NCGC00164576-04]
CC-v2 (curve class classification v2 of the dose response curve) [1]: 4 | Max Resp (difference between neutral response and compound response for highest compound concentration) [1]: -20.627

COc1cc2nc(N3CCN(C(=O)c4ccco4)CC3)nc(N)c2cc1OC [NCGC00016740-18]
Max Resp (difference between neutral response and compound response for highest compound concentration) [1]: -5.44

CC(C)COCC(CN(Cc1ccccc1)c1ccccc1)N1CCCC1 (stereo not drawn) [NCGC00015155-11]
CC-v2 (curve class classification v2 of the dose response curve) [1]: -2.2 | Efficacy (difference between neutral response and maximum compound response) [1]: -53.208 | Max Resp (difference between neutral response and compound response for highest compound concentration) [1]: -86.237

CCCCCCCCCCC[C@@H](C[C@@H]1OC(=O)[C@H]1CCCCCC)OC(=O)C(CC(C)C)NC=O (stereo partly drawn) [NCGC00165856-03]
CC-v2 (curve class classification v2 of the dose response curve) [1]: -3 | Efficacy (difference between neutral response and maximum compound response) [1]: 0 | Max Resp (difference between neutral response and compound response for highest compound concentration) [1]: -33.733

CCOc1cc(N)c(Cl)cc1C(=O)NCC1CN(Cc2ccc(F)cc2)CCO1 (stereo not drawn) [NCGC00160527-05]
CC-v2 (curve class classification v2 of the dose response curve) [1]: 4 | Efficacy (difference between neutral response and maximum compound response) [1]: -16.441 | Max Resp (difference between neutral response and compound response for highest compound concentration) [1]: -14.706

CN(C)c1cccc(-c2c3c(=O)n(-c4ccccc4Cl)[nH]c3cc(=O)n2C)c1 [NCGC00378460-01]
CC-v2 (curve class classification v2 of the dose response curve) [1]: 4 | Efficacy (difference between neutral response and maximum compound response) [1]: 10.267 | Max Resp (difference between neutral response and compound response for highest compound concentration) [1]: 14.909

CC1OC(OC2C(O)COC(O[C@@H]3[C@@H](O)[C@@H](O)[C@H](OC4C(OC(=O)[C@]56CCC(C)(C)CC5C5=CCC7[C@@]8(C)C[C@H](O)[C@H](OC9OC(CO)C(O)C(O)C9O)[C@@](C)(CO)C8[C@H](O)C[C@@]7(C)[C@]5(C)CC6)OCC(O)C4O)O[C@H]3C)C2O)C(O)C(O)C1O (stereo partly drawn) [NCGC00385323-01]
CC-v2 (curve class classification v2 of the dose response curve) [1]: -3 | Max Resp (difference between neutral response and compound response for highest compound concentration) [1]: -39.964

CC1(C)C=Cc2c(ccc(C(=O)/C=C/c3ccccc3)c2O)O1 [NCGC00187466-03]
CC-v2 (curve class classification v2 of the dose response curve) [1]: 4 | Max Resp (difference between neutral response and compound response for highest compound concentration) [1]: -35.49

CC[C@@H]1C(=O)N(C)c2cnc(Nc3ccc(C(=O)NC4CCC(N5CCN(CC6CC6)CC5)CC4)cc3OC)nc2N1C(C)C (stereo partly drawn) [NCGC00263087-01]
CC-v2 (curve class classification v2 of the dose response curve) [1]: 4 | Efficacy (difference between neutral response and maximum compound response) [1]: 12.227 | Max Resp (difference between neutral response and compound response for highest compound concentration) [1]: 10.387

CC(=O)O[C@H]1C[C@@H]2[C@]3(CC[C@]4(C)[C@@H](C5(C)CCC(C(C)(C)O)O5)[C@@H](O)C[C@@]24C)C[C@@]32CC[C@H](O[C@@H]3OC[C@@H](O)[C@H](O)[C@H]3O)C(C)(C)[C@H]12 (stereo partly drawn) [NCGC00385494-01]
CC-v2 (curve class classification v2 of the dose response curve) [1]: 4 | Efficacy (difference between neutral response and maximum compound response) [1]: 27.089 | Max Resp (difference between neutral response and compound response for highest compound concentration) [1]: -22.612

CCc1ccc(C(=O)Nc2cc(CN3CCN(C)CC3)cc(C(F)(F)F)c2)cc1C#Cc1cnc2ccnn2c1 [NCGC00347217-02]
CC-v2 (curve class classification v2 of the dose response curve) [1]: -3 | Efficacy (difference between neutral response and maximum compound response) [1]: -116.826 | Max Resp (difference between neutral response and compound response for highest compound concentration) [1]: -100.407

CC1OC(OC2C(c3c(O)cc(OC4OC(CO)C(O)C(O)C4O)c4c(=O)cc(-c5ccc(O)cc5)oc34)OC(CO)C(O)C2O)C(O)C(O)C1O (stereo not drawn) [NCGC00384535-01]
CC-v2 (curve class classification v2 of the dose response curve) [1]: 4 | Max Resp (difference between neutral response and compound response for highest compound concentration) [1]: -6.059

COc1c(O)c(C(=O)/C=C/c2ccccc2)c(OC)c(OC)c1OC [NCGC00384644-01]
CC-v2 (curve class classification v2 of the dose response curve) [1]: 4 | Max Resp (difference between neutral response and compound response for highest compound concentration) [1]: -2.089

CCOC(=O)C1=C(N)Oc2ccc(Br)cc2C1C(C#N)C(=O)OCC (stereo not drawn) [NCGC00025207-16]
AC50 [2]: 3.26e-05 M | Curve class [2]: -3 | Efficacy [2]: -33.191 | AC50 ([2]; Zika virus, Vero, read-out: Log AC50 (converted)): 3.26e-05 M | Emax ([2]; Zika virus, Vero, read-out: Max response): -2.2%

CCNC(=O)Nc1ccc(-c2nc3c(c(N4CCOC[C@@H]4C)n2)CCN(c2ncccn2)C3)cc1 [NCGC00378864-01]
Efficacy [2]: -63.761 | AC50 ([2]; Zika virus, Vero): 2.06e-05 M | AC50 ([2]; Zika virus, Vero, read-out: Log AC50 (M) (converted)): 2.06e-05 M
